Results on 3 molecules are retold here after patent US12325862B2, “Compositions and methods for transgenic crops resistant to thaxtomins” (University of Florida Research Foundation, Inc., priority 2019, dated 2025).

One data set has as its system radish seedlings. The data set can be described thus: Radish seedling assay. Format: in vivo. The following applies: for growth of radish seedlings on agar plate: after seven days, compared with negative control DMSO. As to the method: Serial concentrations of thaxtomins in DMSO were added into 20 mL of 1.5% warm agar solution with gentle agitation to the final concentrations range from 0 to 2 μM. DMSO was included as a negative control. The solution was then poured into the plate for solidification at room temperature for 30 min. Radish seeds (W. Atlee Burpee & Co., Warminster Township, Pennsylvania) were surface disinfested, pregerminated, and selected when the radicle was […] and just emerged from the seed coat. Six radish seedlings were equally located on the surface of each plate with the root ends all pointed in the same direction. Agar plates were covered and sealed with Parafilm®. The seedlings in the agar plates grew at room temperature under fluorescent lighting (12 h per day for 7 days), and then the seedling with average size of all seedlings in the same plate was selected for comparison.
A radish seedling assay was carried out to investigate the herbicidal activity of serial concentrations of 4-amino thaxtomin A (compound 5). The assay also included DMSO as negative control and thaxtomin A (1) as positive control. […] The diminished herbicidal activity is caused by the transformation of the nitro group of thaxtomin A (1) into the amine group.

Data set [1] in a line: NfsB enzymatic reaction, conditions optimized with thaxtomin A as substrate. Format: biochemical. The protocol:
Enzymatic reaction conditions were optimized with thaxtomin A as substrate. […] When coupled with a glucose dehydrogenase (GDH)- or phosphite dehydrogenase (PTDH)-based NADPH regeneration system, the enzyme at 10 μM achieved greater than 90% conversion of thaxtomin A (2 mM) at 37° C. in 8 hours. […] In addition, a crude extract of engineered thaxtomin producing strain Streptomyces albus-thx2 was prepared; the extract contained about 69% thaxtomin A based on HPLC analysis.

As for `CN1C(=O)[C@](O)(Cc2cccc(O)c2)N(C)C(=O)[C@@H]1Cc1c[nH]c2cccc(N)c12` [compound 5, 4-amino thaxtomin A], the “growth of radish seedlings on agar plate” value in the data set on radish seedlings (0.05 μM) and with radish seedlings (2.0 μM) was “the same as the negative control DMSO” each time. For the same molecule, the “herbicidal activity to radish seedlings” value in the data set with radish seedlings (overall conclusion, 0.05 μM and 2.0 μM) is given as “minimal to no herbicidal activity”.

For the molecule `CN1C(=O)[C@](O)(Cc2cccc(O)c2)N(C)C(=O)[C@@H]1Cc1c[nH]c2cccc([N+](=O)[O-])c12` [thaxtomin A, reference compound], in the data set with radish seedlings (2.0 μM), the “growth of radish seedlings on agar plate” value is reported as “significantly inhibited”.

B1: NfsB: nitroreductase from Haemophilus influenzae (SEQ ID NO: 4), recombinant with C-terminal His6 tag (protein, listed as Haemophilus influenzae)
chain: MTQLTREQVLELFHQRSSTRYYDPTKKISDEDFECILECGRLSPSSVGSEPWKFLVIQNKTLREKMKPFSWGMINQLDNCSHLVVILAKKNARYDSPFFVDVMARKGLNAEQQQAALTKYKALQEEDMKLLENDRTLFDWCSKQTYIALANMLTGASALGIDSCPIEGFHYDKMNECLAEEGLFDPQEYAVSVAATFGYRSRDIAKKSRKGLDEVVKWVG
modifications: C-terminal His6 tag
Take B1: the “conversion of thaxtomin A (1) in crude extract into compound 5” value in data set [1] (crude extract of Streptomyces albus-thx2, about 69% thaxtomin A) was “completely converted”. Moreover, in data set [1] (enzyme 10 μM, thaxtomin A 2 mM, 37° C., 8 hours, GDH- or PTDH-based NADPH regeneration system), the “conversion of thaxtomin A” value is listed as “greater than 90%”. In addition, the “temperature of highest enzyme activity” value in data set [1] (thaxtomin A as substrate) turned out to be 37 °C.
